# Test results as given in ChEMBL document CHEMBL5154702, “Synthesis and biological evaluation of aminobenzamides containing purine moiety as class I histone deacetylases inhibitors” (Bioorg Med Chem, 2022).
# System: K562
# Experiment: cells
# Format: functional, cell-based
# Details: Homo sapiens, K562, 48 h
row,Compound,IC50
1,CNc1nc(Cl)nc2c1ncn2Cc1ccc(C(=O)Nc2ccccc2N)cc1,23 nM
2,CCNc1nc(Cl)nc2c1ncn2Cc1ccc(C(=O)Nc2ccccc2N)cc1,2890 nM

# Second part, the molecule after the results:
row,IC50,Compound
1,5430 nM,CCCNc1nc(Cl)nc2c1ncn2Cc1ccc(C(=O)Nc2ccccc2N)cc1
2,1190 nM,Nc1ccccc1NC(=O)c1ccc(CNC(=O)OCc2cccnc2)cc1 [ENTINOSTAT]

# System: A549
# Experiment: cells
# Format: functional, cell-based
# Details: Homo sapiens, A549, 48 h
row,Compound,IC50
1,CCCCNc1nc(Cl)nc2c1ncn2CCCC(=O)NCc1ccc(C(=O)Nc2ccccc2N)cc1,165000 nM
2,CNc1nc(Cl)nc2c1ncn2CCCC(=O)NCc1ccc(C(=O)Nc2ccccc2N)cc1,97000 nM
3,CNc1nc(Cl)nc2c1ncn2Cc1ccc(C(=O)Nc2ccccc2N)cc1,860 nM
4,CCNc1nc(Cl)nc2c1ncn2Cc1ccc(C(=O)Nc2ccccc2N)cc1,860 nM

# Second part, the molecule after the results:
row,IC50,Compound
1,800 nM,CCCNc1nc(Cl)nc2c1ncn2Cc1ccc(C(=O)Nc2ccccc2N)cc1
2,392000 nM,CCN(CC)c1nc(Cl)nc2c1ncn2CCCC(=O)NCc1ccc(C(=O)Nc2ccccc2N)cc1
3,177000 nM,CCCCCNc1nc(Cl)nc2c1ncn2CCCC(=O)NCc1ccc(C(=O)Nc2ccccc2N)cc1
4,1480 nM,Nc1ccccc1NC(=O)c1ccc(CNC(=O)OCc2cccnc2)cc1 [ENTINOSTAT]

# System: HepG2
# Experiment: cells
# Format: functional, cell-based
# Details: Homo sapiens, HepG2, 48 h
row,Compound,IC50
1,CNc1nc(Cl)nc2c1ncn2Cc1ccc(C(=O)Nc2ccccc2N)cc1,2290 nM
2,CCNc1nc(Cl)nc2c1ncn2Cc1ccc(C(=O)Nc2ccccc2N)cc1,160 nM

# Next, values leading:
row,IC50,Compound
1,120 nM,CCCNc1nc(Cl)nc2c1ncn2Cc1ccc(C(=O)Nc2ccccc2N)cc1
2,1760 nM,Nc1ccccc1NC(=O)c1ccc(CNC(=O)OCc2cccnc2)cc1 [ENTINOSTAT]

# Molecular target: Histone deacetylase 1 (Homo sapiens, UniProt Q13547)
# Experiment: Inhibition of recombinant human full-length C-terminal Flag-His6-tagged HDAC1 (1 to 482 residues) expressed in Sf9 insect cells using fluorogenic HDAC substrate measured after 30 mins by fluorimetry
# Details: not given
# Chain of Histone deacetylase 1 (Q13547 whole entry, the tested form may be a part): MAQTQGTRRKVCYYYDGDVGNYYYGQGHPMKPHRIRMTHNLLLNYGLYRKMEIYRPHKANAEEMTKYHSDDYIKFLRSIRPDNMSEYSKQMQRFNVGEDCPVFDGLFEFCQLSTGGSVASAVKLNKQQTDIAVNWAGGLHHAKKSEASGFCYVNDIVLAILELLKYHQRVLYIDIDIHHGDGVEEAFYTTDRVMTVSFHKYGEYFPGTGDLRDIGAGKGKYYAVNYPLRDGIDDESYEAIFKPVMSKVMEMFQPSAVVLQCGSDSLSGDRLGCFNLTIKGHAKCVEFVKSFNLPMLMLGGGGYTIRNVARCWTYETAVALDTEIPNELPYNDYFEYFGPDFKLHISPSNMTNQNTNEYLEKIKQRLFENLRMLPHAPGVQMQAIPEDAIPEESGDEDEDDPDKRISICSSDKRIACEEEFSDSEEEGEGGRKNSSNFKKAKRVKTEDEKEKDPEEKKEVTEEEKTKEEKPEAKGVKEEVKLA
row,IC50,Compound
1,309 nM,CCCNc1nc(Cl)nc2c1ncn2Cc1ccc(C(=O)Nc2ccccc2N)cc1
2,77.4 nM,CNc1nc(Cl)nc2c1ncn2Cc1ccc(C(=O)Nc2ccccc2N)cc1
3,93.5 nM,CCNc1nc(Cl)nc2c1ncn2Cc1ccc(C(=O)Nc2ccccc2N)cc1

# Molecular target: Histone deacetylase 3/Nuclear receptor corepressor 2 (HDAC3/NCoR2) (Homo sapiens, UniProt O15379)
# Experiment: biochemical
# Set-up: species or system Sf9
# Details: not given
# Chain of Histone deacetylase 3/Nuclear receptor corepressor 2 (HDAC3/NCoR2) (O15379 whole entry): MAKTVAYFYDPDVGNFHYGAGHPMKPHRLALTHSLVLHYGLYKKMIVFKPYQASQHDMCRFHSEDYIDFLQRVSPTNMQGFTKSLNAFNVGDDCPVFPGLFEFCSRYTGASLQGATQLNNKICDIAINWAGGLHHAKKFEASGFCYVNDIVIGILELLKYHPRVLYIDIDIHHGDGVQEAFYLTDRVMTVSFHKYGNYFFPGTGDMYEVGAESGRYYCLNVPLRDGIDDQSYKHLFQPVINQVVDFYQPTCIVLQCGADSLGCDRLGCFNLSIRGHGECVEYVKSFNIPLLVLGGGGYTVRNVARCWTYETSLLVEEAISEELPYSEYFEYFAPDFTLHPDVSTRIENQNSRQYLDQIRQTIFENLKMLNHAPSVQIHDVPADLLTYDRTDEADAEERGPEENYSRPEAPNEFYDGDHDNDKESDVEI
# Chain of Histone deacetylase 3/Nuclear receptor corepressor 2 (HDAC3/NCoR2) (Q9Y618 whole entry, further chain): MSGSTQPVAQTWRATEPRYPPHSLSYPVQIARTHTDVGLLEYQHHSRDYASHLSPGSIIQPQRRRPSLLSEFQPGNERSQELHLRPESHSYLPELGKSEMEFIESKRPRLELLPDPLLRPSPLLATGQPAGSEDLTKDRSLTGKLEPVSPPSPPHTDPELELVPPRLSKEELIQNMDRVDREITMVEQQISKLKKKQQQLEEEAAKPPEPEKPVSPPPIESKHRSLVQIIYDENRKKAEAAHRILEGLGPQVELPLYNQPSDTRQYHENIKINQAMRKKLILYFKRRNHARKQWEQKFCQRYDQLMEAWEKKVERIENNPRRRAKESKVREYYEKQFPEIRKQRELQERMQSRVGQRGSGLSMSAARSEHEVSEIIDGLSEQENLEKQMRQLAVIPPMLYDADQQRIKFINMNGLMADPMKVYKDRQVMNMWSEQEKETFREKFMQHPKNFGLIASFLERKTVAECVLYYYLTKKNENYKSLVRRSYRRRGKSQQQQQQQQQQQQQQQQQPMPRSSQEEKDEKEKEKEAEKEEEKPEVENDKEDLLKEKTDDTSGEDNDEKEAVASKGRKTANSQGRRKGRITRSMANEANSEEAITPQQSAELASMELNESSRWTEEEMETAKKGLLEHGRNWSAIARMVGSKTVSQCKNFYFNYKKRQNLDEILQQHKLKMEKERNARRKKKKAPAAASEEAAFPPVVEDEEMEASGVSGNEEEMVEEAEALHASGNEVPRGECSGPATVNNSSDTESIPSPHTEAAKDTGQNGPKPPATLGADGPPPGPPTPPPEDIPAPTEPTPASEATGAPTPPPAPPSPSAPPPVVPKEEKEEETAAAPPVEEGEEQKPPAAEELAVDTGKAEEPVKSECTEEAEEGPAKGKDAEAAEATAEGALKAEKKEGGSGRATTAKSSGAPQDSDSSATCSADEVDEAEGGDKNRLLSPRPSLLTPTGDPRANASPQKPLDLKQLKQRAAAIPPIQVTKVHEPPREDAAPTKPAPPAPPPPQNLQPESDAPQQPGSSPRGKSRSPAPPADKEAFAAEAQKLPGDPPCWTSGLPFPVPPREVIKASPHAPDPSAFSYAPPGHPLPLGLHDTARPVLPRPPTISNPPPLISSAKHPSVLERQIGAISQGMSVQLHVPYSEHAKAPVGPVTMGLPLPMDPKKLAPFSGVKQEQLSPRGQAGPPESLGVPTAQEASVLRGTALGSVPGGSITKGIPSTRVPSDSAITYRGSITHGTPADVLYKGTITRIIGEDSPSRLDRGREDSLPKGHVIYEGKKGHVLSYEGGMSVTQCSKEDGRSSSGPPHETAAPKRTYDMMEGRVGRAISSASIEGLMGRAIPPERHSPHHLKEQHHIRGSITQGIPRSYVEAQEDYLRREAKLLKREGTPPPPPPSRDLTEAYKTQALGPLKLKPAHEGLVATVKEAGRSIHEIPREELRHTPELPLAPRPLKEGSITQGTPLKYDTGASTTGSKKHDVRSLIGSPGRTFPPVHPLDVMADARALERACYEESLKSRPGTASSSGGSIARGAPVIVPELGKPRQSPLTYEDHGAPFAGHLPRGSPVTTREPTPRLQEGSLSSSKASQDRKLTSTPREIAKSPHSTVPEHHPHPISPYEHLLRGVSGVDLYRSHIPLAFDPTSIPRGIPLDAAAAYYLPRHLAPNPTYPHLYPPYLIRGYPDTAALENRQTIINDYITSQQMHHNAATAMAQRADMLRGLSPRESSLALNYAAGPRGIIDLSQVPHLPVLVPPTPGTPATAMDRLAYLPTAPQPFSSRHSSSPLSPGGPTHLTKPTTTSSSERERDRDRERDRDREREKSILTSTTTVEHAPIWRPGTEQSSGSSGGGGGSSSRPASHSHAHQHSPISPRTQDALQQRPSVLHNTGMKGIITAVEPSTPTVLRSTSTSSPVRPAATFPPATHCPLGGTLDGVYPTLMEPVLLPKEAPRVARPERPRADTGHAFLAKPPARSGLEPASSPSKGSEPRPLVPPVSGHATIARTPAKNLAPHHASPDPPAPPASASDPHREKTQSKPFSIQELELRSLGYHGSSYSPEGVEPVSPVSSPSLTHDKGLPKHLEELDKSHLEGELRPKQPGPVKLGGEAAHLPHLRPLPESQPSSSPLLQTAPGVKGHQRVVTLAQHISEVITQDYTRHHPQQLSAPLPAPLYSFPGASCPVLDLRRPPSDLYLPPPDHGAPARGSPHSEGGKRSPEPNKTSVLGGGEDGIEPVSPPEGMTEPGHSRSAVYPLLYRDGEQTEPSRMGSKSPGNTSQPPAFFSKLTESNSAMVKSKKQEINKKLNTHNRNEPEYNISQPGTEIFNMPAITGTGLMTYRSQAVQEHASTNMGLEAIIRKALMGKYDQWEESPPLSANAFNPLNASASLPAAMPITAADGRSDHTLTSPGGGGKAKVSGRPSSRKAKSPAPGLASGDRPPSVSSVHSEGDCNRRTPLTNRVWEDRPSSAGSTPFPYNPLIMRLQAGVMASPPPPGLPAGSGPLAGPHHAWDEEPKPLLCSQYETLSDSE
row,IC50,Compound
1,1360 nM,CCCNc1nc(Cl)nc2c1ncn2Cc1ccc(C(=O)Nc2ccccc2N)cc1
2,1770 nM,CNc1nc(Cl)nc2c1ncn2Cc1ccc(C(=O)Nc2ccccc2N)cc1
3,1070 nM,CCNc1nc(Cl)nc2c1ncn2Cc1ccc(C(=O)Nc2ccccc2N)cc1

# System: SGC-7901
# Experiment: Antiproliferative activity against human SGC-7901 cells measured after 48 hrs by MTT assay
# Format: functional, cell-based
# Details: SGC-7901, 48 h
row,Compound,IC50
1,CCCCNc1nc(Cl)nc2c1ncn2CCCC(=O)NCc1ccc(C(=O)Nc2ccccc2N)cc1,64100 nM
2,CNc1nc(Cl)nc2c1ncn2CCCC(=O)NCc1ccc(C(=O)Nc2ccccc2N)cc1,27000 nM
3,CNc1nc(Cl)nc2c1ncn2Cc1ccc(C(=O)Nc2ccccc2N)cc1,5160 nM
4,CCNc1nc(Cl)nc2c1ncn2Cc1ccc(C(=O)Nc2ccccc2N)cc1,990 nM

# Next, values leading:
row,IC50,Compound
1,1990 nM,CCCNc1nc(Cl)nc2c1ncn2Cc1ccc(C(=O)Nc2ccccc2N)cc1
2,59900 nM,CCN(CC)c1nc(Cl)nc2c1ncn2CCCC(=O)NCc1ccc(C(=O)Nc2ccccc2N)cc1
3,19600 nM,CCCCCNc1nc(Cl)nc2c1ncn2CCCC(=O)NCc1ccc(C(=O)Nc2ccccc2N)cc1
4,980 nM,Nc1ccccc1NC(=O)c1ccc(CNC(=O)OCc2cccnc2)cc1 [ENTINOSTAT]

# Molecular target: T1, Protein deacetylase HDAC6 (Homo sapiens, UniProt Q9UBN7)
# T1 sequence (Q9UBN7 whole entry): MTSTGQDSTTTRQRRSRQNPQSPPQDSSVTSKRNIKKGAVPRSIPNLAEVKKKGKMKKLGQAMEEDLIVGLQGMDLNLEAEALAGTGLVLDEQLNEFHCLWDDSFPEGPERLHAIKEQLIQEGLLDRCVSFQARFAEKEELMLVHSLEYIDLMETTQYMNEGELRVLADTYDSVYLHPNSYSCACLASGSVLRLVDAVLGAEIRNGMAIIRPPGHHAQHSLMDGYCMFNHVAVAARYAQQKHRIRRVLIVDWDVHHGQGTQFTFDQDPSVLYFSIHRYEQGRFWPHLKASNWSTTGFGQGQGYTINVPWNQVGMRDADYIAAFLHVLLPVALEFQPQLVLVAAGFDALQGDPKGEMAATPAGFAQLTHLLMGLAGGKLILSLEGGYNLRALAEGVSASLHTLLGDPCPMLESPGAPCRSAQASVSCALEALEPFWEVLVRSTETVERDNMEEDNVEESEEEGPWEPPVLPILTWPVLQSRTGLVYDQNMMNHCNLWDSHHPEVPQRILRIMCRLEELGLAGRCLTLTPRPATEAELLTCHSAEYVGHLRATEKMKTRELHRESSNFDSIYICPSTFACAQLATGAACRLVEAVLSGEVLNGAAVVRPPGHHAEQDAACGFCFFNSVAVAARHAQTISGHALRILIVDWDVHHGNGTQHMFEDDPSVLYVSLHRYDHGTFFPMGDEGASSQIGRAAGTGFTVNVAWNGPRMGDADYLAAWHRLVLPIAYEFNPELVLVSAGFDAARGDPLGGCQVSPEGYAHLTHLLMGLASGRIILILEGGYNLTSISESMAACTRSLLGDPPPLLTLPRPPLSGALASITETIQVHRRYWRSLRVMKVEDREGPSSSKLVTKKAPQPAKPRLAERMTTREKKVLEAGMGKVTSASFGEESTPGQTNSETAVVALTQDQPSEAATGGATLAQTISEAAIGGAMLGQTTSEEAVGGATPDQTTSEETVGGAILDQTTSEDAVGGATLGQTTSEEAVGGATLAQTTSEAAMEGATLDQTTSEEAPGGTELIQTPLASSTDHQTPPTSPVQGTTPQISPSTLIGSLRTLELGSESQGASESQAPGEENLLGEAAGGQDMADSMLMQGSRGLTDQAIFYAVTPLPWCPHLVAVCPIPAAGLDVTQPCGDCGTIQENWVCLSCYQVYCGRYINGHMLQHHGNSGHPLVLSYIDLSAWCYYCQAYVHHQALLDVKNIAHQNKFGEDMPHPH
# Experiment: Inhibition of recombinant human N-terminal GST-tagged HDAC6 (1 to 1215 residues) expressed in Sf9 insect cells using fluorogenic HDAC substrate 3 measured after 30 mins by fluorimetry
# Details: not given
row,Compound,IC50
1,CCCNc1nc(Cl)nc2c1ncn2Cc1ccc(C(=O)Nc2ccccc2N)cc1,43700 nM
2,CNc1nc(Cl)nc2c1ncn2Cc1ccc(C(=O)Nc2ccccc2N)cc1,21800 nM
3,CCNc1nc(Cl)nc2c1ncn2Cc1ccc(C(=O)Nc2ccccc2N)cc1,31700 nM

# Molecular target: T2, Histone deacetylase 8 (Homo sapiens, UniProt Q9BY41)
# T2 sequence (Q9BY41 whole entry): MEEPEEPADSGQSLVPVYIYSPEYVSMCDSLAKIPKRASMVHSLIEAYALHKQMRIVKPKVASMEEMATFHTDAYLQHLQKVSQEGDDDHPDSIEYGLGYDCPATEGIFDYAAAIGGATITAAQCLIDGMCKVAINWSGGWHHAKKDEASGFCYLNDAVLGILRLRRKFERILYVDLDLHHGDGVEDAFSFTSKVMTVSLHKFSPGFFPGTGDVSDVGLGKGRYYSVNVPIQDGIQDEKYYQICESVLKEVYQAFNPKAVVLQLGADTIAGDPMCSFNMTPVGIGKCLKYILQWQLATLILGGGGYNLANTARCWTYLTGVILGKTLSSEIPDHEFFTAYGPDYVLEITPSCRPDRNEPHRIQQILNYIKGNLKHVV
# Experiment: Inhibition of human full-length C-terminal His-tagged HDAC8 expressed in baculovirus infected Sf9 insect cell using fluorogenic HDAC class 2a substrate measured after 30 mins by fluorimetry
# Details: not given
row,IC50,Compound
1,1880 nM,CCCNc1nc(Cl)nc2c1ncn2Cc1ccc(C(=O)Nc2ccccc2N)cc1
2,1020 nM,CNc1nc(Cl)nc2c1ncn2Cc1ccc(C(=O)Nc2ccccc2N)cc1
3,2370 nM,CCNc1nc(Cl)nc2c1ncn2Cc1ccc(C(=O)Nc2ccccc2N)cc1

# System: MDA-MB-231
# Experiment: Potency index, ratio of MS-275 IC50 to test compound IC50 for antiproliferative activity against human MDA-MB-231 cells
# Format: functional
# Details: not given
row,Compound,Ratio IC50
1,CCCNc1nc(Cl)nc2c1ncn2Cc1ccc(C(=O)Nc2ccccc2N)cc1,4
2,CNc1nc(Cl)nc2c1ncn2Cc1ccc(C(=O)Nc2ccccc2N)cc1,4
3,CCNc1nc(Cl)nc2c1ncn2Cc1ccc(C(=O)Nc2ccccc2N)cc1,4

# Molecular target: Histone deacetylase
# Experiment: not given
# Format: cell-based, Homo sapiens
# Details: hela
row,Compound,IC50
1,CCCCNc1nc(Cl)nc2c1ncn2CCCC(=O)NCc1ccc(C(=O)Nc2ccccc2N)cc1,950 nM
2,CNc1nc(Cl)nc2c1ncn2CCCC(=O)NCc1ccc(C(=O)Nc2ccccc2N)cc1,5020 nM
3,CNc1nc(Cl)nc2c1ncn2Cc1ccc(C(=O)Nc2ccccc2N)cc1,1480 nM
4,CCNc1nc(Cl)nc2c1ncn2Cc1ccc(C(=O)Nc2ccccc2N)cc1,1640 nM

# The remaining lines, values ahead:
row,IC50,Compound
1,574 nM,CCCNc1nc(Cl)nc2c1ncn2Cc1ccc(C(=O)Nc2ccccc2N)cc1
2,3910 nM,CCN(CC)c1nc(Cl)nc2c1ncn2CCCC(=O)NCc1ccc(C(=O)Nc2ccccc2N)cc1
3,3430 nM,CCCCCNc1nc(Cl)nc2c1ncn2CCCC(=O)NCc1ccc(C(=O)Nc2ccccc2N)cc1

# System: MDA-MB-231
# Experiment: Antiproliferative activity against human MDA-MB-231 cells measured after 48 hrs by MTT assay
# Format: functional, cell-based
# Details: MDA-MB-231, 48 h
row,Compound,IC50
1,CCCCNc1nc(Cl)nc2c1ncn2CCCC(=O)NCc1ccc(C(=O)Nc2ccccc2N)cc1,5640 nM
2,CNc1nc(Cl)nc2c1ncn2CCCC(=O)NCc1ccc(C(=O)Nc2ccccc2N)cc1,15500 nM
3,CNc1nc(Cl)nc2c1ncn2Cc1ccc(C(=O)Nc2ccccc2N)cc1,240 nM
4,CCNc1nc(Cl)nc2c1ncn2Cc1ccc(C(=O)Nc2ccccc2N)cc1,60 nM

# Second part, the molecule after the results:
row,IC50,Compound
1,50 nM,CCCNc1nc(Cl)nc2c1ncn2Cc1ccc(C(=O)Nc2ccccc2N)cc1
2,11100 nM,CCN(CC)c1nc(Cl)nc2c1ncn2CCCC(=O)NCc1ccc(C(=O)Nc2ccccc2N)cc1
3,9680 nM,CCCCCNc1nc(Cl)nc2c1ncn2CCCC(=O)NCc1ccc(C(=O)Nc2ccccc2N)cc1

# System: MDA-MB-231
# Experiment: Potency index, ratio of SAHA IC50 to test compound IC50 for antiproliferative activity against human MDA-MB-231 cells
# Format: functional
# Details: not given
row,Compound,Ratio IC50
1,CCCNc1nc(Cl)nc2c1ncn2Cc1ccc(C(=O)Nc2ccccc2N)cc1,4
2,CNc1nc(Cl)nc2c1ncn2Cc1ccc(C(=O)Nc2ccccc2N)cc1,4
3,CCNc1nc(Cl)nc2c1ncn2Cc1ccc(C(=O)Nc2ccccc2N)cc1,4

# Molecular target: Histone deacetylase 4 (Homo sapiens, UniProt P56524)
# Experiment: Inhibition of recombinant human N-terminal GST-fused/C-terminal His-tagged HDAC4 (627 to 1084 residues) expressed in baculovirus infected Sf9 insect cells using fluorogenic HDAC class 2a substrate measured after 30 mins by fluorimetry
# Details: not given
# Chain of Histone deacetylase 4 (P56524 whole entry, the tested form may be a part): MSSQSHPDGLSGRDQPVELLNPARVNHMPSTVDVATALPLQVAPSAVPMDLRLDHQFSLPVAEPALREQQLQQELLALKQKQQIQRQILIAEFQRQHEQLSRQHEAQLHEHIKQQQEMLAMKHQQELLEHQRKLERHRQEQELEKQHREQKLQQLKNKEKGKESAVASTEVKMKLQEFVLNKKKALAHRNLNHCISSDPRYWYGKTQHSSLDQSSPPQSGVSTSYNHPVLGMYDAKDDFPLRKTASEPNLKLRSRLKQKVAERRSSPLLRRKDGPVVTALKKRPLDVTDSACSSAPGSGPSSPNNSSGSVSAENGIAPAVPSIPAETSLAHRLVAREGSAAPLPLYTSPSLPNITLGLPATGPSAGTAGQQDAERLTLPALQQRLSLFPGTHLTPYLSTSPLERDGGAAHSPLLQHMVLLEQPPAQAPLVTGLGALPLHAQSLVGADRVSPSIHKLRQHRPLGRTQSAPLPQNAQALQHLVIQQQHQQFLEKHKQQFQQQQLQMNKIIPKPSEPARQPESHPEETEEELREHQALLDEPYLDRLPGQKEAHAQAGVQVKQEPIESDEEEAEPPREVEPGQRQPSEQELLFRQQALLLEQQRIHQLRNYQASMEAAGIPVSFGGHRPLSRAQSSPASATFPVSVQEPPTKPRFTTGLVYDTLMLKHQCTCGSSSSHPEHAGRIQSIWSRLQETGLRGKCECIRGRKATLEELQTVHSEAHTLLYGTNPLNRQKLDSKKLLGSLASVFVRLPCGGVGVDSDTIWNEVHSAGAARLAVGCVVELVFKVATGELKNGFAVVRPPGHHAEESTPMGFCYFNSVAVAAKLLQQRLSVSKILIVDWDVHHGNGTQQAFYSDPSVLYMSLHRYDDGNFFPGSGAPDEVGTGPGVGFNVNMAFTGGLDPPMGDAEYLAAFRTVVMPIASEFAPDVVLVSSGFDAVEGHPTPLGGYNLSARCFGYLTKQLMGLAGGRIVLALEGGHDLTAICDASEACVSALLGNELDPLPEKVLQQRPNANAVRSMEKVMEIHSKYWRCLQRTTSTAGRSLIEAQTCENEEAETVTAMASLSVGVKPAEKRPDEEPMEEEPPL
row,Compound,IC50
1,CCCNc1nc(Cl)nc2c1ncn2Cc1ccc(C(=O)Nc2ccccc2N)cc1,> 100000 nM
2,CNc1nc(Cl)nc2c1ncn2Cc1ccc(C(=O)Nc2ccccc2N)cc1,> 100000 nM
3,CCNc1nc(Cl)nc2c1ncn2Cc1ccc(C(=O)Nc2ccccc2N)cc1,> 100000 nM

# System: HCT-116
# Experiment: Antiproliferative activity against human HCT-116 cells measured after 48 hrs by MTT assay
# Format: functional, cell-based
# Details: HCT-116, 48 h
row,Compound,IC50
1,CCCCNc1nc(Cl)nc2c1ncn2CCCC(=O)NCc1ccc(C(=O)Nc2ccccc2N)cc1,11200 nM
2,CNc1nc(Cl)nc2c1ncn2CCCC(=O)NCc1ccc(C(=O)Nc2ccccc2N)cc1,87100 nM
3,CNc1nc(Cl)nc2c1ncn2Cc1ccc(C(=O)Nc2ccccc2N)cc1,1670 nM
4,CCNc1nc(Cl)nc2c1ncn2Cc1ccc(C(=O)Nc2ccccc2N)cc1,1530 nM

# More lines, now with the values ahead:
row,IC50,Compound
1,5500 nM,CCCNc1nc(Cl)nc2c1ncn2Cc1ccc(C(=O)Nc2ccccc2N)cc1
2,20600 nM,CCN(CC)c1nc(Cl)nc2c1ncn2CCCC(=O)NCc1ccc(C(=O)Nc2ccccc2N)cc1
3,14400 nM,CCCCCNc1nc(Cl)nc2c1ncn2CCCC(=O)NCc1ccc(C(=O)Nc2ccccc2N)cc1
4,2480 nM,Nc1ccccc1NC(=O)c1ccc(CNC(=O)OCc2cccnc2)cc1 [ENTINOSTAT]
